From ChEMBL document CHEMBL1159211, “Antifungal evaluation of pseudolaric acid B, a major constituent of Pseudolarix kaempferi” (J Nat Prod, 1995)
Calls of active or inactive are those of the source. No cut-off for these calls is given here.

Columns and labels:
[1] = tested on: Candida albicans; assay: Antimicrobial activity against Candida albicans at 1 mg/mL by agar-well diffusion assay; format: functional; settings: for zone of inhibition at 1000 µg/mL: Candida albicans, read-out: IZ
[2] = tested on: Cryptococcus neoformans; assay: Antimicrobial activity against Cryptococcus neoformans at 1 mg/mL by agar-well diffusion assay; format: functional
[3] = tested on: Staphylococcus aureus; assay: Antimicrobial activity against Staphylococcus aureus at 1 mg/mL by agar-well diffusion assay; format: functional, organism-based
[4] = tested on: Trichophyton mentagrophytes; assay: Antimicrobial activity against Trichophyton mentagrophytes at 1 mg/mL by agar-well diffusion assay; format: functional
[5] = tested on: Mycobacterium intracellulare; assay: Antimicrobial activity against Mycobacterium intracellular at 1 mg/mL by agar-well diffusion assay; format: functional
[6] = tested on: Escherichia coli; assay: Antimicrobial activity against Escherichia coli at 1 mg/mL by agar-well diffusion assay; format: functional, organism-based
[7] = tested on: Pseudomonas aeruginosa; assay: Antimicrobial activity against Pseudomonas aeruginosa at 1 mg/mL by agar-well diffusion assay; format: functional, organism-based
[8] = tested on: Aspergillus fumigatus; assay: Antimicrobial activity against Aspergillus fumigatus at 1 mg/mL by agar-well diffusion assay; format: functional
[9] = tested on: Aspergillus flavus; assay: Antimicrobial activity against Aspergillus flavus at 1 mg/mL by agar-well diffusion assay; format: functional
[10] = tested on: Nannizzia gypsea; assay: Antimicrobial activity against Microsporum gypseum at 1 mg/mL by agar-well diffusion assay; format: functional
[11] = tested on: Bacillus subtilis; assay: Antimicrobial activity against Bacillus subtilis at 1 mg/mL by agar-well diffusion assay; format: functional, organism-based
[12] = tested on: Saccharomyces cerevisiae; assay: Antimicrobial activity against Saccharomyces cerevisiae at 1 mg/mL by agar-well diffusion assay; format: functional, organism-based

SMILES	zone of inhibition at 1000 µg/mL [1] [mm]	Activity [2]	Activity [3]	Activity [4]	Activity [5]	Activity [6]	Activity [7]	Activity [8]	Activity [9]	Activity [10]	Activity [11]	Activity [12]	zone of inhibition at 1000 µg/mL ([2]; read-out: IZ) [mm]	zone of inhibition at 1000 µg/mL ([5]; read-out: IZ) [mm]	zone of inhibition at 1000 µg/mL ([8]; Aspergillus fumigatus, read-out: IZ) [mm]	zone of inhibition at 1000 µg/mL ([9]; read-out: IZ) [mm]	inhibition zone (IZ) [1] [mm]	inhibition zone (IZ) [4] [mm]	inhibition zone (IZ) [8] [mm]	inhibition zone (IZ) [10] [mm]
CC(=O)O[C@]12CCC(C(=O)O)=CC[C@]13CC[C@H]2[C@@](C)(/C=C/C=C(\C)C(=O)O)OC3=O [PSEUDOLARIC ACID C2]	< 1	inactive	inactive	inactive	inactive	inactive	inactive	inactive	inactive	inactive	inactive	inactive								
COC(=O)C1=CC[C@@]23CC[C@@H]([C@@](C)(/C=C/C=C(\C)C(=O)O)OC2=O)[C@@]3(O)CC1 [PSEUDOLARIC ACID C]	1		inactive	inactive		inactive	inactive			inactive	inactive	inactive	1	1	1	1				
COC(=O)C1=CC[C@@]23CC[C@@H]([C@@](C)(/C=C/C=C(\C)C(=O)[O-])OC2=O)[C@@]3(OC(C)=O)CC1.[Na+] [SODIUM PSEUDOLARATE B]																	7	7	3	7
